In patent US8183380B2, “2-aminoquinolines” (Hoffmann-La Roche Inc., priority 2008, dated 2012):

Molecular target: T1, recombinant human 5-HT5A receptor (Homo sapiens, UniProt P47898)
T1 construct: expressed in transfected cells; host or cells: HEK-EBNA (Human Embryonic Kidney-EBNA) cells, transient cDNA expression; membranes
Experiment: [3H]LSD radioligand binding assay
Settings: [3H]LSD (approximately 1 nM); membranes from transiently expressed 5-HT5A receptors in HEK-EBNA cells; Ki from IC50 by Cheng-Prussoff equation
Protocol: A [^3H]LSD radioligand binding assay was used to determine the affinity of the compounds for the recombinant human 5-HT5A receptor, in membranes from transiently (cDNA) expressed 5-HT5A receptors in Human Embryonic Kidney-EBNA (HEK-EBNA) cells. Assay buffer consisted of Tris (50 mM) buffer containing 1 mM EGTA, 10 mM MgCl2 (pH 7.4) and 10 μM pargyline. The binding assay was carried out in 96-well-plates in the presence of [^3H]LSD (approximately 1 nM), approximately 2 μg/well of membrane protein, and 0.5 mg of Ysi-poly-1-lysine SPA beads in a final volume of 200 μl of buffer. Non-specific binding was defined using methiothepin 2 μM. Compounds were tested at 10 concentrations. All assays were conducted in duplicate and repeated at least two times. Assay plates were incubated for 120 min at room temperature before centrifugation. Bound ligand was determined using a Packard Topcount scintillation counter. IC50 values were calculated using a non-linear curve fitting program and Ki values calculated using the Cheng-Prussoff equation.

T1 sequence (P47898 whole entry): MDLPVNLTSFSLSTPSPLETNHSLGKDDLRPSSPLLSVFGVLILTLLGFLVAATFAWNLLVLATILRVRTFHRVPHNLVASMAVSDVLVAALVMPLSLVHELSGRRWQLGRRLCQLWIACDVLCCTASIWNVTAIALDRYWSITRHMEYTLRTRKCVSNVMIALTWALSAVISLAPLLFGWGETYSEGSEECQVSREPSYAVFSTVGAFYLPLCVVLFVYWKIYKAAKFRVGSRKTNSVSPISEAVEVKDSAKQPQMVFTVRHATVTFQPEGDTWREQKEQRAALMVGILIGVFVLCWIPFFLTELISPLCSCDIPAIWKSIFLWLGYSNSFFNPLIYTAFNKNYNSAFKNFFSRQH

In order of rising Ki:
1. O=C(Nc1ccc2nc(N[C@@H]3CCc4ccccc43)ccc2c1)NC1CCN(CCO)CC1 [Example 137, 1-[1-(2-Hydroxy-ethyl)-piperidin-4-yl]-3-[2-((R)-indan-1-ylamino)-quinolin-6-yl]-urea]  1.7 nM
2. COc1cccc2c1C(Nc1ccc3cc(NS(=O)(=O)N4C[C@@H]5C[C@H]4CO5)ccc3n1)CC2 (stereo partly drawn) [Example 148, (1S,4S)-2-Oxa-5-aza-bicyclo[2.2.1]heptane-5-sulfonic acid [2-(7-methoxy-indan-1-ylamino)-quinolin-6-yl]-amide]  2.1 nM
3. O=C(Nc1ccc2nc(N[C@@H]3CCc4ccccc43)ccc2c1)NC1CCN(CCF)CC1 [Example 97, 1-[1-(2-Fluoro-ethyl)-piperidin-4-yl]-3-[2-((R)-indan-1-ylamino)-quinolin-6-yl]-urea]  2.9 nM
4. CN1[C@@H]2CC[C@H]1C[C@H](NC(=O)Nc1ccc3nc(N[C@@H]4CCc5ccccc54)ccc3c1)C2 [Example 101, 1-[2-((R)-Indan-1-ylamino)-quinolin-6-yl]-3-((3-exo)-8-methyl-8-aza-bicyclo[3.2.1]oct-3-yl)-urea]  3.7 nM
5. O=C(Nc1ccc2nc(N[C@@H]3CCc4ccccc43)ccc2c1)N[C@@H]1C[C@H]2CC[C@@H](C1)N2C1CC1 [Example 99, 1-((3-exo)-8-Cyclopropyl-8-aza-bicyclo[3.2.1]oct-3-yl)-3-[2-((R)-indan-1-ylamino)-quinolin-6-yl]-urea]  3.9 nM
6. N#CCN1CCC(NC(=O)Nc2ccc3nc(N[C@@H]4CCc5ccccc54)ccc3c2)CC1 [Example 133, 1-(1-Cyanomethyl-piperidin-4-yl)-3-[2-((R)-indan-1-ylamino)-quinolin-6-yl]-urea]  4.2 nM
7. CS(=O)(=O)CCN1CCC(NC(=O)Nc2ccc3nc(N[C@@H]4CCc5ccccc54)ccc3c2)CC1 [Example 135, 1-[2-((R)-Indan-1-ylamino)-quinolin-6-yl]-3-[1-(2-methanesulfonyl-ethyl)-piperidin-4-yl]-urea]  5.7 nM
8. CN(C)C(=O)CN1CCC(NC(=O)Nc2ccc3nc(N[C@@H]4CCc5ccccc54)ccc3c2)CC1 [Example 136, 2-(4-{3-[2-((R)-Indan-1-ylamino)-quinolin-6-yl]-ureido}-piperidin-1-yl)-N,N-dimethylacetamide]  6.5 nM
9. CN1CCN(CC(=O)Nc2ccc3nc(N[C@@H]4CCc5ccccc54)ccc3c2)CC1 [Example 210, N-[2-((R)-Indan-1-ylamino)-quinolin-6-yl]-2-(4-methyl-piperazin-1-yl)-acetamide]  6.7 nM
10. CC(C)N1[C@@H]2CC[C@H]1C[C@H](NC(=O)Nc1ccc3nc(N[C@@H]4CCc5ccccc54)ccc3c1)C2 [Example 170, 1-[2-((R)-Indan-1-ylamino)-quinolin-6-yl]-3-((3-exo)-8-isopropyl-8-aza-bicyclo[3.2.1]oct-3-yl)-urea]  7.1 nM
11. O=C(Nc1ccc2nc(N[C@@H]3CCc4ccccc43)ccc2c1)N[C@@H]1C[C@H]2CCC[C@@H](C1)N2C1CC1 [Example 110, 1-((3-exo)-9-Cyclopropyl-9-aza-bicyclo[3.3.1]non-3-yl)-3-[2-((R)-indan-1-ylamino)-quinolin-6-yl]-urea]  7.2 nM
12. CC(C)N1C2CCCC1CC(NC(=O)Nc1ccc3nc(NC4CCc5ccccc54)ccc3c1)C2 [Example 168, 1-[2-((R)-Indan-1-ylamino)-quinolin-6-yl]-3-((3-exo)-9-isopropyl-9-aza-bicyclo[3.3.1]non-3-yl)-urea]  7.8 nM
13. CC(C)OC(=O)Nc1ccc2nc(N[C@@H]3CCc4ccccc43)ccc2c1 [Example 138, [2-((R)-Indan-1-ylamino)-quinolin-6-yl]-carbamic acid isopropyl ester]  8 nM
14. (2-Methoxy-ethyl)-methyl-sulfonic acid [2-((R)-indan-1-ylamino)quinolin-6-yl]-amide [Example 75]  8.3 nM
15. NC(=S)Nc1ccc2nc(N[C@@H]3CCc4ccccc43)ccc2c1 [Example 149, [2-((R)-Indan-1-ylamino)-quinolin-6-yl]-thiourea]  14.8 nM
16. CC(C)N=C(Nc1ccc2nc(N[C@@H]3CCc4ccccc43)ccc2c1)NC(C)C [Example 166, N-[2-((R)-Indan-1-ylamino)-quinolin-6-yl]-N′,N″-diisopropyl-guanidine]  33.7 nM
